# Experimental data: ChEMBL document CHEMBL4270599, “Synthesis of a 3'-C-ethynyl-β-d-ribofuranose purine nucleoside library: Discovery of C7-deazapurine analogs as potent antiproliferative nucleosides” (Eur J Med Chem, 2018)
# Experiments:
# [1] = tested on: SK-MEL-5; assay: Growth inhibition of human SK-MEL-5 cells assessed as cell growth at 10^-7 M incubated for 48 hrs by sulforhodamine B assay relative to control; type: functional; settings: SK-MEL-5, 48 h, read-out: Activity
# [2] = tested on: SK-MEL-2; assay: Growth inhibition of human SK-MEL-2 cells assessed as cell growth at 10^-8 M incubated for 48 hrs by sulforhodamine B assay relative to control; type: functional; settings: SK-MEL-2, 48 h, read-out: Activity
# [3] = tested on: RXF 393; assay: Growth inhibition of human RXF393 cells assessed as cell growth at 10^-8 M incubated for 48 hrs by sulforhodamine B assay relative to control; type: functional; settings: RXF 393, 48 h, read-out: Activity
# [4] = tested on: SNB-19; assay: Growth inhibition of human SNB19 cells assessed as cell growth at 10^-8 M incubated for 48 hrs by sulforhodamine B assay relative to control; type: functional; settings: SNB-19, 48 h, read-out: Activity
# [5] = tested on: MDA-MB-231; assay: Cytotoxicity against human MDA-MB-231 cells after 48 hrs by SRB assay; type: functional; settings: MDA-MB-231, 48 h; for GI50: read-out: GI50; for CC50: read-out: LC50 (the source's name)
# [6] = tested on: SF-295; assay: Growth inhibition of human SF295 cells assessed as cell growth at 10^-8 M incubated for 48 hrs by sulforhodamine B assay relative to control; type: functional; settings: SF-295, 48 h, read-out: Activity
# [7] = tested on: OVCAR-3; assay: Growth inhibition of human OVCAR3 cells assessed as cell growth at 10^-8 M incubated for 48 hrs by sulforhodamine B assay relative to control; type: functional; settings: OVCAR-3, 48 h, read-out: Activity
# [8] = tested on: SF-539; assay: Growth inhibition of human SF539 cells assessed as cell growth at 10^-7 M incubated for 48 hrs by sulforhodamine B assay relative to control; type: functional; settings: SF-539, 48 h, read-out: Activity
# [9] = tested on: NCI/ADR-RES; assay: Growth inhibition of human NCI/ADR-RES cells assessed as cell growth at 10^-6 M incubated for 48 hrs by sulforhodamine B assay relative to control; type: functional; settings: read-out: Activity
# [10] = tested on: MDA-MB-435; assay: Growth inhibition of human MDA-MB-435 cells assessed as cell growth at 10^-6 M incubated for 48 hrs by sulforhodamine B assay relative to control; type: functional; settings: MDA-MB-435, 48 h, read-out: Activity
# [11] = tested on: HOP-92; assay: Growth inhibition of human HOP92 cells assessed as cell growth at 10^-8 M incubated for 48 hrs by sulforhodamine B assay relative to control; type: functional; settings: HOP-92, 48 h, read-out: Activity
# [12] = tested on: HOP-92; assay: Cytotoxicity against human HOP92 cells after 48 hrs by SRB assay; type: functional; settings: HOP-92, 48 h; for GI50: read-out: GI50; for CC50: read-out: LC50 (the source's name); for TGI: read-out: TGI
# [13] = tested on: SK-MEL-5; assay: Growth inhibition of human SK-MEL-5 cells assessed as cell growth at 10^-8 M incubated for 48 hrs by sulforhodamine B assay relative to control; type: functional; settings: SK-MEL-5, 48 h, read-out: Activity
# [14] = tested on: SN12C; assay: Growth inhibition of human SN12C cells assessed as cell growth at 10^-6 M incubated for 48 hrs by sulforhodamine B assay relative to control; type: functional; settings: read-out: Activity
# [15] = tested on: KM12; assay: Growth inhibition of human KM12 cells assessed as cell growth at 10^-8 M incubated for 48 hrs by sulforhodamine B assay relative to control; type: functional; settings: KM12, 48 h, read-out: Activity
# [16] = tested on: DU-145; assay: Cytotoxicity against human DU145 cells after 48 hrs by SRB assay; type: functional; settings: DU-145, 48 h; for GI50: read-out: GI50; for CC50: read-out: pLC50 (the source's name) (converted)
# [17] = tested on: HCT-116; assay: Growth inhibition of human HCT116 cells assessed as cell growth at 10^-6 M incubated for 48 hrs by sulforhodamine B assay relative to control; type: functional; settings: HCT-116, 48 h, read-out: Activity
# [18] = tested on: NCI/ADR-RES; assay: Growth inhibition of human NCI/ADR-RES cells assessed as cell growth at 10^-4 M incubated for 48 hrs by sulforhodamine B assay relative to control; type: functional; settings: read-out: Activity
# [19] = Antiproliferative activity against HELF cells after 4 days by Coulter counter method; type: cell-based; settings: Homo sapiens, 96 h
# [20] = tested on: OVCAR-5; assay: Growth inhibition of human OVCAR5 cells assessed as cell growth at 10^-6 M incubated for 48 hrs by sulforhodamine B assay relative to control; type: functional; settings: OVCAR-5, 48 h, read-out: Activity
# [21] = tested on: T47D; assay: Growth inhibition of human T47D cells assessed as cell growth at 10^-8 M incubated for 48 hrs by sulforhodamine B assay relative to control; type: functional; settings: read-out: Activity
# [22] = tested on: SN12C; assay: Growth inhibition of human SN12C cells assessed as cell growth at 10^-4 M incubated for 48 hrs by sulforhodamine B assay relative to control; type: functional; settings: read-out: Activity
# [23] = tested on: NCI-H460; assay: Growth inhibition of human NCI-H460 cells assessed as cell growth at 10^-8 M incubated for 48 hrs by sulforhodamine B assay relative to control; type: functional; settings: NCI-H460, 48 h, read-out: Activity
# [24] = tested on: HCT-116; assay: Growth inhibition of human HCT116 cells assessed as cell growth at 10^-7 M incubated for 48 hrs by sulforhodamine B assay relative to control; type: functional; settings: HCT-116, 48 h, read-out: Activity
# [25] = tested on: NCI-H23; assay: Growth inhibition of human NCI-H23 cells assessed as cell growth at 10^-6 M incubated for 48 hrs by sulforhodamine B assay relative to control; type: functional; settings: NCI-H23, 48 h, read-out: Activity
# [26] = tested on: U-251; assay: Growth inhibition of human U251 cells assessed as cell growth at 10^-5 M incubated for 48 hrs by sulforhodamine B assay relative to control; type: functional; settings: U-251, 48 h, read-out: Activity
# [27] = tested on: MOLT-4; assay: Growth inhibition of human MOLT4 cells assessed as cell growth at 10^-7 M incubated for 48 hrs by sulforhodamine B assay relative to control; type: functional; settings: MOLT-4, 48 h, read-out: Activity
# [28] = tested on: HT-29; assay: Growth inhibition of human HT-29 cells assessed as cell growth at 10^-7 M incubated for 48 hrs by sulforhodamine B assay relative to control; type: functional; settings: HT-29, 48 h, read-out: Activity
# [29] = tested on: LOX IMVI; assay: Growth inhibition of human LOXIMVI cells assessed as cell growth at 10^-8 M incubated for 48 hrs by sulforhodamine B assay relative to control; type: functional; settings: read-out: Activity
# [30] = tested on: MCF7; assay: Growth inhibition of human MCF7 cells assessed as cell growth at 10^-4 M incubated for 48 hrs by sulforhodamine B assay relative to control; type: functional; settings: MCF7, 48 h, read-out: Activity
# [31] = tested on: UO-31; assay: Growth inhibition of human UO31 cells assessed as cell growth at 10^-8 M incubated for 48 hrs by sulforhodamine B assay relative to control; type: functional; settings: UO-31, 48 h, read-out: Activity
# [32] = tested on: RXF 393; assay: Cytotoxicity against human RXF393 cells after 48 hrs by SRB assay; type: functional; settings: RXF 393, 48 h; for GI50: read-out: GI50; for TGI: read-out: TGI
smiles,measurement,setting,value
C#C[C@@]1(O)[C@@H](CO)O[C@@H](n2cc(I)c3c(N)ncnc32)[C@@H]1O,growth at 0.1 µM,[1],62 to 65%
same,growth at 0.01 µM,[2],84 to 101%
same,growth at 0.01 µM,[3],94 to 102%
same,growth at 0.01 µM,[4],88 to 92%
same,GI50,[5],168 to 204 nM
same,CC50,[5],> 100000 nM
same,TGI,[5]; read-out: TGI,> 100000 nM
same,TGI,[5]; read-out: pTGI (converted),> 100000 nM
same,growth at 0.01 µM,[6],90%
same,growth at 0.01 µM,[7],91 to 98%
same,growth at 0.1 µM,[8],75 to 82%
same,growth at 1 µM,[9],4 to 7%
same,growth at 1 µM,[10],34 to 46%
same,growth at 0.01 µM,[11],58 to 74%
same,GI50,[12],25 to 217 nM
same,CC50,[12],> 100000 nM
same,TGI,[12],991 to 4980 nM
same,growth at 0.01 µM,[13],87 to 94%
same,growth at 1 µM,[14],16 to 25%
same,growth at 0.01 µM,[15],94 to 97%
same,GI50,[16],98.3 to 164 nM
same,TGI,[16]; read-out: TGI,> 100000 nM
same,CC50,[16],> 100000 nM
same,TGI,[16]; read-out: pTGI (converted),> 100000 nM
same,growth at 1 µM,[17],5 to 6%
same,growth at 100 µM,[18],-2%
same,IC50,[19],32 nM
same,growth at 1 µM,[20],43 to 64%
same,growth at 0.01 µM,[21],13 to 44%
same,growth at 100 µM,[22],6%
same,growth at 0.01 µM,[23],91 to 92%
same,growth at 0.1 µM,[24],22 to 34%
same,growth at 1 µM,[25],28 to 33%
same,growth at 10 µM,[26],4%
same,growth at 0.1 µM,[27],39 to 52%
same,growth at 0.1 µM,[28],14 to 34%
same,growth at 0.01 µM,[29],85 to 93%
same,growth at 100 µM,[30],1 to 3%
same,growth at 0.01 µM,[31],84 to 85%
same,GI50,[32],418 to 463 nM
same,CC50,[32]; read-out: LC50 (the source's name),7840 to 100000 nM
same,TGI,[32],2010 to 2540 nM
C#C[C@@]1(O)[C@@H](CO)O[C@@H](n2cc(Cl)c3c(N)ncnc32)[C@@H]1O,growth at 0.1 µM,[1],55 to 69%
same,growth at 0.01 µM,[2],86 to 95%
same,growth at 0.01 µM,[3],101 to 108%
same,growth at 0.01 µM,[4],68 to 94%
same,GI50,[5],148 to 193 nM
same,CC50,[5],> 100000 nM
same,TGI,[5]; read-out: TGI,893 to 1010 nM
same,growth at 0.01 µM,[6],82 to 92%
same,growth at 0.01 µM,[7],97 to 101%
same,growth at 0.1 µM,[8],90 to 98%
same,growth at 0.01 µM,[11],90 to 97%
same,GI50,[12],433 to 476 nM
same,CC50,[12],> 100000 nM
same,TGI,[12],3330 to 3740 nM
same,growth at 0.01 µM,[13],90 to 97%
same,growth at 1 µM,[14],5 to 11%
same,growth at 0.01 µM,[15],85 to 88%
same,GI50,[16],109 to 159 nM
same,TGI,[16]; read-out: TGI,27000 to 100000 nM
same,CC50,[16],> 100000 nM
same,IC50,[19],9.2 nM
same,growth at 1 µM,[20],23 to 38%
same,growth at 0.01 µM,[21],71 to 84%
same,growth at 100 µM,[22],1%
same,growth at 0.01 µM,[23],45 to 96%
same,growth at 0.1 µM,[24],4 to 5%
same,growth at 0.1 µM,[27],62 to 67%
same,growth at 0.1 µM,[28],18 to 38%
same,growth at 0.01 µM,[29],70 to 84%
same,growth at 0.01 µM,[31],67 to 82%
same,GI50,[32],299 to 485 nM
same,TGI,[32],813 to 2010 nM
same,CC50,[32]; read-out: pLC50 (the source's name) (converted),> 100000 nM
